Measured values taken from patent EP1923473B1, “Bis-diglycolamides (BISDGA) as new extractants for lanthanides [Ln(III)] and actinides [An(III)] from aqueous high-level wastes” (Universidad Autónoma de Madrid, priority 2006, dated 2008).

Experiment: Batch extraction from simulated HLLW from the PUREX process
Format: physicochemical
Details: 0.1 mol/L in TPH/1-octanol (90:10)
Text: The feed solution used for the extraction tests is a simulated solution of an HLLW from the PUREX process, the composition of which is shown in Table 4. Table 4: Composition of the simulated HLLW-PUREX solution used for the extraction tests
The composition of the HLLW corresponds to a burn-up of 33 GWd/tHM, the generated volume of HLLW being 5000 1/t of fuel. The feed was spiked with ^241Am, ^244Cm, ^252Cf and ^152Eu. Oxalic acid and N-(2-hydroxyethyl)ethylenediaminotriacetate (HEDTA) were also added before the extraction tests.
500 µL of the aqueous and organic phases were spiked with 10 µL of a tracer solution containing 241Am, 244Cm, 252Cf and ^152Eu, and were equilibrated for 10 minutes while they were stirred vigorously in a vortex stirrer. After the separation of the phases by centrifugation, 200 µL aliquots of each phase were taken for the determination of the concentration of ^241Am and ^152Eu using a high-purity germanium spectrometer system (EG&G Ortec). The nuclides ^241Am, ^244Cm and ^252Cf were measured by alpha spectrometry with an α-Analyst device of the company Canberra-Packard GmbH, Germany.
The concentrations of the stable elements were determined by mass spectrometry with an inductively coupled plasma source (ICP-MS) in a DRC Elan 6100 device of Perkin Elmer Sciex. The aqueous phase was measured directly after the appropriate dilution. The organic phase was analyzed after having mineralized the organic matter by microwave acid digestion and subsequent dilution.
The distribution coefficients were calculated for each element according to section C).
A 0.1 mol/L solution of compound 4 in the "TPH/1-octanol (90:10)%vol" mixture was prepared. Extraction experiments were carried out with said simulated HLLW in a pure form and also adding oxalic acid and HEDTA to it. These complexing agents have shown to be effective in the DIAMEX process for the complexing of Mo, Zr (H2C2O4) and Pd (HEDTA).
Extraction experiments were carried out with said simulated HLLW in a pure form and also adding oxalic acid and HEDTA to it.

[1] = Oxalic acid 0.2 mol/L, HEDTA 0.05 mol/L, TBP 0.5 mol/L
[2] = Oxalic acid 0.2 mol/L, HEDTA 0.05 mol/L, TBP No
[3] = Oxalic acid 0.3 mol/L, HEDTA 0.05 mol/L, TBP 0.5 mol/L
[4] = Oxalic acid 0.3 mol/L, HEDTA 0.05 mol/L, TBP No
[5] = Oxalic acid No, HEDTA No, TBP 0.5 mol/L
[6] = Oxalic acid No, HEDTA No, TBP No

Substance: 2-Dioctylcarbamoylmethoxy-N-[3-[3-(2-dioctylcarbamoyl-methoxyacetylamino)propoxy]propyl]acetamide [Compound 18]
- Distribution coefficients Ag [1]: 0.19
- Distribution coefficients Ba [1]: 0.0008
- Distribution coefficients Cd [1]: 0.022
- Distribution coefficients Ce [1]: 20
- Distribution coefficients Cf-252 [1]: 666
- Distribution coefficients Cm-244 [1]: 95
- Distribution coefficients Cs [1]: 0.0005
- Distribution coefficients Eu [1]: 309
- Distribution coefficients Eu-152 [1]: 282
- Distribution coefficients Gd [1]: 140
- Distribution coefficients La [1]: 12
- Distribution coefficients Mo [1]: 0.15
- Distribution coefficients Nd [1]: 69
- Distribution coefficients Pd [1]: 0.05
- Distribution coefficients Pr [1]: 32
- Distribution coefficients Rb [1]: 0.008
- Distribution coefficients Rh [1]: 0.003
- Distribution coefficients Ru [1]: 0.22
- Distribution coefficients Sm [1]: 284
- Distribution coefficients Y [1]: 631
- Distribution coefficients Zr [1]: 0.18
- Distribution coefficients Ag [2]: 0.5
- Distribution coefficients Ba [2]: 0.0008
- Distribution coefficients Cd [2]: 0.032
- Distribution coefficients Ce [2]: 24
- Distribution coefficients Cf-252 [2]: 511
- Distribution coefficients Cm-244 [2]: 85
- Distribution coefficients Cs [2]: 0.0004
- Distribution coefficients Eu [2]: 341
- Distribution coefficients Eu-152 [2]: 523
- Distribution coefficients Gd [2]: 197
- Distribution coefficients La [2]: 12
- Distribution coefficients Mo [2]: 0.21
- Distribution coefficients Nd [2]: 101
- Distribution coefficients Pd [2]: 0.10
- Distribution coefficients Pr [2]: 44
- Distribution coefficients Rb [2]: 0.008
- Distribution coefficients Rh [2]: 0.004
- Distribution coefficients Ru [2]: 0.21
- Distribution coefficients Sm [2]: 432
- Distribution coefficients Y [2]: 618
- Distribution coefficients Zr [2]: 0.51
- Distribution coefficients Ag [3]: 0.08
- Distribution coefficients Ba [3]: 0.0008
- Distribution coefficients Cd [3]: 0.024
- Distribution coefficients Ce [3]: 22
- Distribution coefficients Cf-252 [3]: 1353
- Distribution coefficients Cm-244 [3]: 164
- Distribution coefficients Cs [3]: 0.0004
- Distribution coefficients Eu [3]: 335
- Distribution coefficients Eu-152 [3]: 330
- Distribution coefficients Gd [3]: 146
- Distribution coefficients La [3]: 12
- Distribution coefficients Mo [3]: 0.19
- Distribution coefficients Nd [3]: 78
- Distribution coefficients Pd [3]: 0.02
- Distribution coefficients Pr [3]: 35
- Distribution coefficients Rb [3]: 0.008
- Distribution coefficients Rh [3]: 0.003
- Distribution coefficients Ru [3]: 0.23
- Distribution coefficients Sm [3]: 363
- Distribution coefficients Y [3]: 811
- Distribution coefficients Zr [3]: 0.06
- Distribution coefficients Ag [4]: 0.14
- Distribution coefficients Ba [4]: 0.0008
- Distribution coefficients Cd [4]: 0.034
- Distribution coefficients Ce [4]: 24
- Distribution coefficients Cf-252 [4]: 1451
- Distribution coefficients Cm-244 [4]: 163
- Distribution coefficients Cs [4]: 0.0006
- Distribution coefficients Eu [4]: 275
- Distribution coefficients Eu-152 [4]: 436
- Distribution coefficients Gd [4]: 196
- Distribution coefficients La [4]: 12
- Distribution coefficients Mo [4]: 0.19
- Distribution coefficients Nd [4]: 97
- Distribution coefficients Pd [4]: 0.04
- Distribution coefficients Pr [4]: 43
- Distribution coefficients Rb [4]: 0.008
- Distribution coefficients Rh [4]: 0.003
- Distribution coefficients Ru [4]: 0.18
- Distribution coefficients Sm [4]: 331
- Distribution coefficients Y [4]: 455
- Distribution coefficients Zr [4]: 0.13
- Distribution coefficients Ag [5]: 6.8
- Distribution coefficients Ba [5]: 0.0008
- Distribution coefficients Cd [5]: 0.015
- Distribution coefficients Ce [5]: 14
- Distribution coefficients Cf-252 [5]: 605
- Distribution coefficients Cm-244 [5]: 102
- Distribution coefficients Cs [5]: 0.0004
- Distribution coefficients Eu [5]: 299
- Distribution coefficients Eu-152 [5]: 393
- Distribution coefficients Gd [5]: 126
- Distribution coefficients La [5]: 8.5
- Distribution coefficients Mo [5]: 0.06
- Distribution coefficients Nd [5]: 49
- Distribution coefficients Pd [5]: 2.2
- Distribution coefficients Pr [5]: 24
- Distribution coefficients Rb [5]: 0.008
- Distribution coefficients Rh [5]: 0.003
- Distribution coefficients Ru [5]: 0.28
- Distribution coefficients Sm [5]: 234
- Distribution coefficients Y [5]: 1119
- Distribution coefficients Zr [5]: 16.5
- Distribution coefficients Ag [6]: 5.8
- Distribution coefficients Ba [6]: 0.0008
- Distribution coefficients Cd [6]: 0.021
- Distribution coefficients Ce [6]: 17
- Distribution coefficients Cf-252 [6]: 1352
- Distribution coefficients Cm-244 [6]: 165
- Distribution coefficients Cs [6]: 0.0004
- Distribution coefficients Eu [6]: 267
- Distribution coefficients Eu-152 [6]: 499
- Distribution coefficients Gd [6]: 160
- Distribution coefficients La [6]: 10
- Distribution coefficients Mo [6]: 0.09
- Distribution coefficients Nd [6]: 74
- Distribution coefficients Pd [6]: 1.7
- Distribution coefficients Pr [6]: 32
- Distribution coefficients Rb [6]: 0.008
- Distribution coefficients Rh [6]: 0.004
- Distribution coefficients Ru [6]: 0.24
- Distribution coefficients Sm [6]: 266
- Distribution coefficients Y [6]: 574
- Distribution coefficients Zr [6]: 9.1
